Square brackets hold non-standard residues; d marks the D form. * marks the point of attachment. 2Nal = N[C@@H](Cc1ccc2ccccc2c1)C(=O)O; Propionyl = CCC(=O)*; Sar = CNCC(=O)O
What was measured:
[1] = system: dogs after whole body radiation at an LD50 exposure; assay: Dog pilot whole body irradiation study; type: in vivo; conditions: single 10 mg/kg dose 24 hours after whole body radiation at LD50
Description: A pilot radio-mitigation study was conducted in dogs with RWJ-800088.

Mice, ear vein = assay: Ear vein model in mice (Table 6); type: in vivo, mouse; conditions: 0.3 mg/kg, whole wrapped cell: Reduced white cell adhesion to endothelium and vascular permeability
[2] = system: CD2F1 mice exposed to TBI (7 Gy); assay: Hematological recovery (peripheral blood counts) after non-lethal 7 Gy TBI; type: in vivo, mouse
Description: Hematological recovery with RWJ-800088: To study the effects of prophylactic administration of RWJ-800088 on the recovery from hematopoietic injury following TBI, CD2F1 mice (n=10 per group) were treated with either a single dose of RWJ-800088 (0.3 mg/kg) or its vehicle (saline) 24 hours pre-TBI at a non-lethal dose of 7.0 Gy. This dose allows the animals to recover completely from the radiation-induced hematopoietic injury. In addition, a group of sham irradiated mice were given either the drug or saline. Blood collection was performed using a 23 G needle from the submandibular vein after anesthetizing the mice with isoflurane (Hospira Inc., Lake Forest, Ill.) at 2 hours and on days 1, 3, 7, 10, 14, 21, and 30 post-TBI. All mice were allowed to recover fully from anesthesia and monitored closely for any signs of a post-anesthesia reaction or bleeding at the collection site before returned to group housed cages. Approximately 20 μL of blood was collected in EDTA tubes and was continually rotated until CBC/differential analysis was completed using a HESKA Element HT™ 5 Analyzer system (HESKA Corporation, Loveland, Colo.). This CBC/differential analysis included white blood cells (WBC) counts, absolute neutrophil counts (Liem-Moolenaar, Clin Pharmacol Ther. 2008 October; 84(4):481-7), monocytes (MON), lymphocytes (LYM), red blood cells (RBC), hematocrits (HCT), and platelets (PLT) counts.

Dog = assay: Maximum platelet elevation relative to baseline in normal healthy dogs, single escalating doses; type: in vivo; parameters: key to pharmacodynamics (PD) effect class of the dose (beneficial effects on survival): **: large pharmacodynamics (PD) effect; *: modest effect; conditions: for Dog Max Platelet Ratio: TOX6985; for maximum platelet elevation: canine
From the text: (§1) The ratio of the maximum platelet counts to the baseline platelet counts following single escalating doses of RWJ-800088 to mice, rats, dogs, rhesus monkeys and human healthy volunteers is shown in Table 5. The dose required to achieve a 2-3.5-fold elevation in humans is ˜100-fold lower compared to mice, ˜1,000-fold lower compared to rats and >10,000-fold lower compared to canines and NHPs. […] The species differences in potency has been described for other TPO mimetics in the literature and is attributed to differences in receptor affinity (Erickson-Miller C L, et al. Discovery and characterization of a selective, nonpeptidyl thrombopoietin receptor agonist. Exp. Hematol. 2005; 33:85-93). […] It is discovered that the dose of RWJ-800088 that produces a survival benefit and protects against vascular and organ injury is the dose that produces a 2-4 fold elevation of platelets (Table 6).

[3] = system: CD2F1 mice exposed to TBI (7 Gy); assay: Circulating biomarkers (EPO, FLT3 ligand, MMP9, VCAM1, E-Selectin, sP-Selectin) after 7 Gy TBI; type: in vivo, mouse
Description: Harvesting blood and tissues for various molecular assays: RWJ-800088 (0.3 mg/kg) or saline (n=6 per group) was administered SC 24 hour prior to irradiation. The experimental animals received either 0 or 7 Gy radiation (non-lethal dose) in the AFRRI Co-60 gamma radiation facility. […] The femurs and sterna were then collected and processed as described below.

Rat = assay: Maximum platelet elevation relative to baseline in normal healthy rats, single escalating doses; type: in vivo; parameters: key to pharmacodynamics (PD) effect class of the dose (beneficial effects on survival): **: large pharmacodynamics (PD) effect; *: modest effect; conditions: for Rat Max Platelet Ratio: TOX6984
From the text: as §1

[4] = system: Rats, prostate irradiation; assay: Prostate irradiation in rats (Table 6); type: in vivo, rat; conditions: 3 mg/kg, whole wrapped cell: Protection of vascular size and function
[5] = day 7 post-TBI 7 Gy, 0.3 mg/kg 24 h pre-TBI
[6] = day 10 post-TBI 7 Gy, 0.3 mg/kg 24 h pre-TBI
[7] = day 14 post-TBI 7 Gy, 0.3 mg/kg 24 h pre-TBI

methoxypolyethyleneglycol20000-propionyl-L-Isoleucyl-L-Glutamyl-Glycyl-L-Prolyl-L-Threonyl-L-Leucyl-L-Arginyl-L-Glutaminyl-L-2-Naphthylalanyl-L-Leucyl-L-Alanyl-L-Alanyl-L-Arginyl-Sarcosyl-Ne-(methoxypolyethyleneglycol20000-propionyl-L-Isoleucyl-L-Glutamyl-Glycyl-L-Prolyl-L-Threonyl-L-Leucyl-L-Arginyl-L-Glutaminyl-L-2-Naphthylalanyl-L-Leucyl-L-Alanyl-L-Alanyl-L-Arginyl-Sarcosyl-)-Lysinamide ({mPEG 20 kDa-Propionyl}-IEGPTLRQ[2Nal]LAAR[Sar]K-NH2; also: dimer: second identical mPEG-propionyl chain on Lys Nε of C-terminal lysinamide) [RWJ-800088]
Blood transfusions [1]: 1.25/ /animal | Days of febrile neutropenia [1]: 1.08 | Diarrhea [1]: 2/12 | Mean survival time [1]: 36 days | Mild to moderate necrohemorrhagic bronchioalveolar or minimal subacute bronchioalveolar inflammation [1]: 6/12 | Mild to severe hematopoietic bone marrow hypocellularity [1]: 6/12 | Mortality [1]: 7/12 | Neutropenia nadir [1]: 9e+07 L⁻¹ | Severe neutropenia duration [1]: 5.4 | Effects (Mice, ear vein): Reduced white cell | recovery from cytopenia of all blood cell counts vs vehicle control ([2]; 7 Gy, 0.3 mg/kg 24 h pre-TBI): significant | Neutrophil (NEU) counts [2, 5]: 0.31±0.026 cells/μL | white blood cell (WBC) counts [2, 5]: 0.5±0.037 cells/μL | lymphocyte (LYM) vs vehicle-treated group ([2]; day 10 post-TBI 7 Gy): significant (p<0.05) increases | platelet (PLT) count [2, 6]: 1565×10^3±148×10^3 cells/μL | white blood cell (WBC) counts [2, 6]: 1.39±0.1756 cells/μL | RBC counts of irradiated vehicle-treated group compared with irradiated RWJ-800088 treated group ([2]; day 14 post-TBI 7 Gy): same effect was also observed | Neutrophil (NEU) counts [2, 7]: 1.54±0.21 cells/μL | white blood cell (WBC) counts [2, 7]: 2.43±0.32 cells/μL | platelet (PLT) count ([2]; day 14 post-TBI 7 Gy, 0.3 mg/kg 24 h pre-TBI, irradiated RWJ-800088 treated group): 1070×10^3±156×10^3 cells/μL | % HCT of irradiated vehicle-treated group compared with irradiated RWJ-800088 treated group ([2]; day 14 post-TBI 7 Gy, p<0.001): significantly lower | monocyte (MON) counts vs irradiated vehicle-treated group ([2]; days 7, 10 and 14 post-TBI 7 Gy, p<0.001): markedly higher | PLT in non-irradiated groups vs saline ([2]; non-irradiated, days 7 and 10 post-TBI (days 8 and 11 after administration), 0.3 mg/kg): significant (p<0.05) increase in PLT | Average of the Maximum Platelet Elevation/Baseline Platelet Counts (Dog; Dog, dose 10000 μg/kg): 1.7 | pharmacodynamics (PD) effect class of the dose (beneficial effects on survival) (Dog; Dog, dose 10000 μg/kg): * | Dog Max Platelet Ratio (Dog; dose 300 μg/kg): 1.0 ± 0.3 | Dog Max Platelet Ratio (Dog; dose 3000 μg/kg): 1.4 ± 0.5 | Dog Max Platelet Ratio (Dog; dose 10000 μg/kg): 1.7 ± 0.5 | maximum platelet elevation (Dog): ~7.7 fold | maximum platelet elevation (Dog; listed as TPOm): ~1.7 fold | circulating levels of erythropoietin (EPO) vs vehicle treated irradiated mice ([3]; 7 Gy, 0.3 mg/kg 24 h pre-TBI (FIG. 5A)): significantly (p<0.0001) lower | circulating levels of FLT3 ligand vs vehicle treated irradiated mice ([3]; 7 Gy, 0.3 mg/kg 24 h pre-TBI (FIG. 5B)): significantly (p<0.0001) lower | circulating levels of sP-Selectin vs vehicle ([3]; days 2, 3, 7, and 15 post-irradiation): statistically significant increases (p<0.0001) | circulating levels of E-Selectin vs vehicle ([3]; days 3, 7 15 and 30 post-irradiation): statistically significant increases (p<0.0001) | circulating levels of MMP-9 vs vehicle ([3]; days 7 and 15 post-irradiation): statistically significant increases (p<0.0001) | circulating levels of VCAM-1 vs vehicle ([3]; days 15 and 30 post-irradiation): statistically significant increases (p<0.0001) | Average of the Maximum Platelet Elevation/Baseline Platelet Counts (Rat; Rat, dose 3000 μg/kg): 3.1 | pharmacodynamics (PD) effect class of the dose (beneficial effects on survival) (Rat; Rat, dose 3000 μg/kg): ** | Dose for 2.0-4x Platelet Elevation in Healthy Subjects (Rat; Rats): ≥3 mg/kg | Rat Max Platelet Ratio (Rat; dose 100 μg/kg): 1.0 ± 0.2 | Rat Max Platelet Ratio (Rat; dose 300 μg/kg): 1.7 ± 0.3 | Rat Max Platelet Ratio (Rat; dose 3000 μg/kg): 3.2 ± 0.6 | Effects [4]: Protection of vascular size

— patent US20220168392A1 (priority 2019, published 2022)
